Assay results reported in ChEMBL document CHEMBL1201862, “PubChem BioAssay data set” (2004).
Active and inactive are the calls of the source. Rule as the data show it, for most assays here: actives have a measured EC50 and inactives only a lower limit.

Key:
INS1 = assay: INS-1E survival protection against cytokine death – cell-based, luminescence, retest, dose response (AID 449756); assay type: functional; conditions: Rattus norvegicus;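 also: cell death triggered by IL-1 beta plus TNF-alpha plus IFN-gamma mixture; protective hits raise ATP signal compared with cytokine alone wells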
[1] = general cell-killing toxicity readout – plate reader, dry powder samples, cytotoxicity control for PAX8 inhibitor project, dose response (AID 743021); assay type: functional, cell-based
[2] = Trypanosoma cruzi growth suppression in host cells – NIH3T3 host cells, beta-gal luminescence, confirmation (AID 2044); assay type: functional, cell-based;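 also: intracellular parasites grown in NIH/3T3 mouse fibroblasts as host cells; luminescent beta-galactosidase reporter signal from transgenic T. cruzi replicating inside host cells; inhibitors lower the luminescence signal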
[3] = alpha-synuclein stem-loop luciferase translation blockers – H4 neuroglioma cells, luminescence, confirmation (AID 1988); assay type: functional, cell-based
[4] = luciferase reporter signal suppression in cells – H4 neuroglioma cells, luminescence, dose response (AID 1990); assay type: functional, cell-based
[5] = Luminescence Cell-Based Dose Response HTS to Identify Inhibitors of 5'UTR Stem-Loop Driven Prion Protein mRNA Translation in H4 Neuroglioblastoma Cells. [Related pubchem assays: 1827 (Project Summary), 1813 (Primary HTS)]; assay type: functional
Paired box protein Pax-8 = Paired box protein Pax-8 (Homo sapiens, UniProt Q06710); assay: PAX8 transcriptional activity inhibition in RMG-I – RMG-I cells, luciferase, cherry-pick, dose response (AID 687027); assay type: functional, cell-based;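 also: luciferase reporter driven by Pax8 target thyroperoxidase promoter measured by SteadyGlo luminescence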
Chain of Paired box protein Pax-8 (Q06710 whole entry): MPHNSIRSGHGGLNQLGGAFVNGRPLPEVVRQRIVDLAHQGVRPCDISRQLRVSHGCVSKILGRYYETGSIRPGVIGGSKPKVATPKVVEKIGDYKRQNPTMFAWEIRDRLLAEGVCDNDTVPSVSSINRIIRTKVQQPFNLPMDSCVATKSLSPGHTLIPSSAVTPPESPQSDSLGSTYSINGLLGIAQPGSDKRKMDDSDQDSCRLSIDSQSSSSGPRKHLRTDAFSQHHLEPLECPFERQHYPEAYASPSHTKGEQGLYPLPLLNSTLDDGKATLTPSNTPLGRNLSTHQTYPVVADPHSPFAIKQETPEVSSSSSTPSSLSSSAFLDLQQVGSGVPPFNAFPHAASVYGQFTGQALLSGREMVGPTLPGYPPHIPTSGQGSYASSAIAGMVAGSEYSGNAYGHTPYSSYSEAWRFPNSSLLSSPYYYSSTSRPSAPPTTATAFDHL

[6] = target: T1, Ubiquitin-conjugating enzyme E2 N (Homo sapiens, UniProt P61088); assay type: functional;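 also: Dose-response confirmation in a TR-FRET assay detecting UBC13-driven polyubiquitin chain formation, inhibition measured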
T1 sequence (P61088 whole entry): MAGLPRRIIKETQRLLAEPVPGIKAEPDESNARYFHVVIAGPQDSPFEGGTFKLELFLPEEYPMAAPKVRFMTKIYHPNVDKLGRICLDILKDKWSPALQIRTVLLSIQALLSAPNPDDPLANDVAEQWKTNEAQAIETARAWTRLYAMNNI

[7] = target: T2, Heat shock factor protein 1 (Mus musculus, UniProt P38532); assay: enhancement of HSF1-driven luciferase signal – cell-based, NIH3T3, luminescence, dose retest, confirmation (AID 435004); assay type: functional;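 also: stress induced by proteasome inhibitor MG132 added 30 min after compound; luciferase reporter driven by HSF1 response element in NIH3T3 cells; actives raise luminescence as potentiators of the MG132 stress response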
T2 sequence (P38532 whole entry): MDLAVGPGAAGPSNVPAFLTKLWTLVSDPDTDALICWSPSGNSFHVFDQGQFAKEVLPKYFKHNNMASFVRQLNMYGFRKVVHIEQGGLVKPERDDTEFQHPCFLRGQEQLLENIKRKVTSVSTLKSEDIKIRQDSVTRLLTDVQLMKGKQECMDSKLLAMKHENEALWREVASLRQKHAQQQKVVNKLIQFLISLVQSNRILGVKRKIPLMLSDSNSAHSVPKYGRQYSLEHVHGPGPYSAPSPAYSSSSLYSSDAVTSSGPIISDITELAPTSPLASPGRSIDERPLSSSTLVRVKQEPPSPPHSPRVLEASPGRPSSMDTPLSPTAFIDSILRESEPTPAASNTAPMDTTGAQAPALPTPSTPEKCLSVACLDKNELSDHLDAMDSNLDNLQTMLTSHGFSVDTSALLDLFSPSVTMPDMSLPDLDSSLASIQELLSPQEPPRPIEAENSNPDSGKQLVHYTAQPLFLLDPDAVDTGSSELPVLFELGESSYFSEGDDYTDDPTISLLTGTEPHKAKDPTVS

[8] = NIH3T3 cell viability loss – ATP luminescence, mouse fibroblasts, counter-screen, dose response (AID 2010); assay type: functional, cell-based;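 also: cells exposed to compound for about 90 hours before reading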
[9] = NIH-3T3 fibroblast cytotoxicity, dose response, cytotoxicity control, cell-based, fluorescence, Alamar Blue, secondary assay (AID 2327); assay type: functional;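 also: NIH-3T3 mouse fibroblasts cultured with fluconazole at 8 µg/mL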
[10] = target: T3, Long-chain-fatty-acid--AMP ligase FadD28 (Mycobacterium tuberculosis, UniProt P9WQ59); assay: Fluorescence polarization aasay to screen for inhibitors that compete for the binding of FadD28 to a bisubstrate Measured in Biochemical System Using Plate Reader - 2147-01_Inhibitor_Dose_CherryPick_Activity.; assay type: functional, Mycobacterium tuberculosis H37Rv
T3 sequence (P9WQ59 whole entry): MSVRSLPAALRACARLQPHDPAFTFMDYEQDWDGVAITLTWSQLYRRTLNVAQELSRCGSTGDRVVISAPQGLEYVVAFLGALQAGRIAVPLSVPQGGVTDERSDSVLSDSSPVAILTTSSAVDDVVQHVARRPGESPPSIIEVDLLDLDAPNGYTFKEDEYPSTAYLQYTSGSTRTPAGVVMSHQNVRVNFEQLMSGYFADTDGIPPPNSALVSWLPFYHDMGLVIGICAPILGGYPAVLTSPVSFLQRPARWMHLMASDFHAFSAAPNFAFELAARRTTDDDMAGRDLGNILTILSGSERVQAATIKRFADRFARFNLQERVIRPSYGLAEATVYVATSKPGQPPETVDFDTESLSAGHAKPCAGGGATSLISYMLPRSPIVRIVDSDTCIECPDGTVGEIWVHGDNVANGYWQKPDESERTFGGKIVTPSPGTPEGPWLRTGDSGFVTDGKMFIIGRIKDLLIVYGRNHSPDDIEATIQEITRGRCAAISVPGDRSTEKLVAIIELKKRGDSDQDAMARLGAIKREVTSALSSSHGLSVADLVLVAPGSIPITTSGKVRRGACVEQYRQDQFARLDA

[11] = system: Streptococcus sp. 'group A'; assay: Streptococcus pyogenes SK(-)GAS viability under kanamycin – luminescence, BacTiterGlo, confirmation, counter-screen for streptokinase expression inhibitor project, dose response (AID 1900); assay type: functional, organism-based
[12] = target: Eukaryotic translation initiation factor 4E (Mus musculus, UniProt P63073); assay: blockers of eIF4G binding by eIF4E – biochemical, TR-FRET, dose response (AID 855); assay type: functional;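 also: potency for disrupting eIF4E binding to eIF4GI seen as loss of FRET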
Chain of Eukaryotic translation initiation factor 4E (P63073 whole entry): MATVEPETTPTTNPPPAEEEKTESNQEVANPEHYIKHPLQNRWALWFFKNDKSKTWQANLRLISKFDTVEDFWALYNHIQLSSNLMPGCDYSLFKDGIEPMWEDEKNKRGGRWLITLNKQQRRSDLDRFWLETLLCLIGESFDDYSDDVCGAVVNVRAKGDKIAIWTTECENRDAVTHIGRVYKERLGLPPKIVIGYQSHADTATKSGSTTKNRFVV

Streptokinase A = target: T4, Streptokinase A (Streptococcus pyogenes serotype M1, UniProt P10520); assay: viability-normalized secreted streptokinase activity reduction – plasminogen activation absorbance, OD405, dose response (AID 1914); assay type: functional, Streptococcus pyogenes M1 GAS;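 also: secreted streptokinase activity via plasminogen activation per viability signal from cell pellet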
T4 sequence (P10520 whole entry): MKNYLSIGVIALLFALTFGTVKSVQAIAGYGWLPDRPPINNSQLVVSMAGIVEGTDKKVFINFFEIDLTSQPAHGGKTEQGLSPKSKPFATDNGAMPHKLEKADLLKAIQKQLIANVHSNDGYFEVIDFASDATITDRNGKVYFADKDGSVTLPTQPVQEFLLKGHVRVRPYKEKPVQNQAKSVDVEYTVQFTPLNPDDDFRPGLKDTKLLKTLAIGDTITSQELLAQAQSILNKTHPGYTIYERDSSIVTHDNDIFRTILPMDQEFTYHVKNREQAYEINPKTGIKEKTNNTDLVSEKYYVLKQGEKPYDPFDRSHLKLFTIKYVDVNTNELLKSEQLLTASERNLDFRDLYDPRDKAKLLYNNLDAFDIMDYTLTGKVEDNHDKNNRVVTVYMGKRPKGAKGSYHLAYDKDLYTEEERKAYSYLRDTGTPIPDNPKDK

Streptococcus = assay: GAS UMAA2166 growth inhibition – luminescence, BacTiterGlo, counter-screen for streptokinase expression inhibitor project, dose response (AID 1915); assay type: functional, organism-based;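 also: potency for reduction of bacterial viability or growth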
[13] = fluconazole-exposed Candida albicans growth modulators – fluorescence, retest, confirmation (AID 2467); assay type: functional, cell-based
[14] = target: T5, High affinity choline transporter 1 (Homo sapiens, UniProt Q9GZV3); assay: human choline transporter blockers, potency – cell-based, 5-point CRC, membrane potential dye, dose response (AID 504840); assay type: functional
T5 sequence (Q9GZV3 whole entry): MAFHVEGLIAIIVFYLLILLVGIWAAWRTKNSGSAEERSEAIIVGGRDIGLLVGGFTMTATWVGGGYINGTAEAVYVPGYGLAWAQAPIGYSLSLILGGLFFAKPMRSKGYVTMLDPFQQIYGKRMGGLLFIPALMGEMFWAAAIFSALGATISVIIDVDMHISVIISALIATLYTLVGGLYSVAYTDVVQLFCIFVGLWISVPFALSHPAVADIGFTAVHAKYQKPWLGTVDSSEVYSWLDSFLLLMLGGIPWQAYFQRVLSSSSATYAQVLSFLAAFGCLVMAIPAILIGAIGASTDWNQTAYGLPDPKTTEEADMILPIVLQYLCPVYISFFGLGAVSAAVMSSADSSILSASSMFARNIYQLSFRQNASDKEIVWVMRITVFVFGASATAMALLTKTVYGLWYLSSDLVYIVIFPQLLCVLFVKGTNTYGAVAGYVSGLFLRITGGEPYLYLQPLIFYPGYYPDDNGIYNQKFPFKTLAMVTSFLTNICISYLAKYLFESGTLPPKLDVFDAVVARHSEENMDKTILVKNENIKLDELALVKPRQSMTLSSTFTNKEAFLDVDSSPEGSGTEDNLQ

Albumin = Albumin (Bos taurus, UniProt P02769); assay: Counterscreen for inhibitors of T-cell receptor (TCR)-CD3 interaction: Fluorescence-based biochemical high throughput dose response assay to identify inhibitors of T-cell receptor (TCR)-CD3 interaction using a TAMRA-labeled BSA probe.; assay type: functional
Chain of Albumin (P02769 whole entry): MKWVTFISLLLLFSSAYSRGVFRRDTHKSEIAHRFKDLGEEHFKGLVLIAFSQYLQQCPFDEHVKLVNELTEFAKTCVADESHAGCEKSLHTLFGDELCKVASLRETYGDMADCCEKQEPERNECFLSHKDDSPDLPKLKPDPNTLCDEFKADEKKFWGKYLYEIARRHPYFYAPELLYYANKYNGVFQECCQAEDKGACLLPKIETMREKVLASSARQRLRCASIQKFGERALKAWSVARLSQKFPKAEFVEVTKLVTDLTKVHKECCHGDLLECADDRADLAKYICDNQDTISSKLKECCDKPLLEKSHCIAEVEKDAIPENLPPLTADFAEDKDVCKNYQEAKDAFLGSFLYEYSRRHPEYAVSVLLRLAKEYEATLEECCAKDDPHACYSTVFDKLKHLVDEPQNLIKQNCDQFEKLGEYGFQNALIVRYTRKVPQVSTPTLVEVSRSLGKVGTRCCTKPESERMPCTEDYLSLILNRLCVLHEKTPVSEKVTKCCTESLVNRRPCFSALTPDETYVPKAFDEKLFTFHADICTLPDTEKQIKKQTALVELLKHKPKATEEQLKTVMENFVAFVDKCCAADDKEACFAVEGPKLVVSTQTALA

Aminopeptidase N = target: T6, Aminopeptidase N (Plasmodium falciparum FcB1/Columbia, UniProt O96935); assay: malaria alanyl aminopeptidase activity blockers – biochemical, fluorogenic H-Leu-NHMec substrate, 1536-well (AID 1445); design: species or system Plasmodium falciparum 3D7, 3D7
T6 sequence (O96935 whole entry): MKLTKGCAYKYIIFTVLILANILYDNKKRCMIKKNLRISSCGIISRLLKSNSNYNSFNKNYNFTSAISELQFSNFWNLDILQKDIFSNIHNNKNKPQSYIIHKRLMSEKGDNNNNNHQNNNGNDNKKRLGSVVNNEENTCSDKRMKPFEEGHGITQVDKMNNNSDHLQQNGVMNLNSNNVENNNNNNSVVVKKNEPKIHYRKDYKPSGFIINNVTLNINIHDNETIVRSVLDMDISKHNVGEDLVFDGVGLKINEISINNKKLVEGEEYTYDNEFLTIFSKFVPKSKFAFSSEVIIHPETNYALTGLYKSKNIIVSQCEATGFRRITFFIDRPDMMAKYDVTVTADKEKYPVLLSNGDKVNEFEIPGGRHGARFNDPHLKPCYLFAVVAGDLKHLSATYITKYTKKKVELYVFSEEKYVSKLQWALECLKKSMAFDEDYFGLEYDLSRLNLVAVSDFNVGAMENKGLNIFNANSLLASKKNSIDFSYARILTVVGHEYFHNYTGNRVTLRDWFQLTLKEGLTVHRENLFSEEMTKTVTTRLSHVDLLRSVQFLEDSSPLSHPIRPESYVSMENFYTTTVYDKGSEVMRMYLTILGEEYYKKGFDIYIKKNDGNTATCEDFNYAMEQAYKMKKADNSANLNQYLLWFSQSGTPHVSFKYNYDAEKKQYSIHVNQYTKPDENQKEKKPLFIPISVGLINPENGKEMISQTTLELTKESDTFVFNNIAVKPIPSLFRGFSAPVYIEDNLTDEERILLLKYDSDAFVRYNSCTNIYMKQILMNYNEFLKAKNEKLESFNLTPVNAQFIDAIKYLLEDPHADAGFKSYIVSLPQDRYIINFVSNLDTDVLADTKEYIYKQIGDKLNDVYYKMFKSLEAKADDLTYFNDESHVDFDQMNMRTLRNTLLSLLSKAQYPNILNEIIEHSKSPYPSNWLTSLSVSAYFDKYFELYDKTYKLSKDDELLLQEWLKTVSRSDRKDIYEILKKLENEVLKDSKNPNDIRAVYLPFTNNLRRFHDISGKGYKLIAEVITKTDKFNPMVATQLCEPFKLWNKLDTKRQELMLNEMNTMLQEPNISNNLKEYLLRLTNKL

| Structure (SMILES) | AC50 (INS1) | AC50 [1] | EC50 [2] | EC50 [3] | EC50 [4] | EC50 [5] | AC50 (Paired box protein Pax-8) | IC50 [6] | EC50 [7] | EC50 [8] | EC50 [9] | AC50 [10] | EC50 [11] | IC50 [12] | EC50 (Streptokinase A) | EC50 (Streptococcus) | EC50 [13] | IC50 [14] | IC50 (Albumin) | IC50 (Aminopeptidase N) |
| --- | --- | --- | --- | --- | --- | --- | --- | --- | --- | --- | --- | --- | --- | --- | --- | --- | --- | --- | --- | --- |
| COc1ccc(/C=N/Nc2cc(C)nc3ccc(Br)cc23)cc1 | 5.79 µM (active) | 26.8 µM (active) | 1.55 µM (active) | 7.61 µM (active) | > 120 µM (not active) | 8.17 µM (active) | 8.78 µM (active) | > 20 µM (inactive) | > 260 µM (inactive) | 8.92 µM (active) | – | – | – | – | – | – | – | – | – | – |
| O=[N+]([O-])c1cc(Br)c(O)c(/C=N/Nc2nnnn2-c2cccc3ccccc23)c1 | – | – | – | – | – | – | – | – | – | – | > 150 µM (inconclusive) | 15.6 µM (active) | 3.69 µM (active) | > 64 µM (inactive) | > 150 µM (not active) | > 150 µM (not active) | > 38 µM (not active) | 30.2 µM (active) | > 94.1 µM (inactive) | 6.79 µM (active) |
